Measured values as given in patent publication US9085555B2, “Complement pathway modulators and uses thereof” (priority 2011, dated 2015).

Each compound was assayed against Factor D (Homo sapiens (Human), UniProt P00746) (assay: biochemical). Conditions: read-out: IC50.
Format: biochemical

Sequence of Factor D (P00746 26-253): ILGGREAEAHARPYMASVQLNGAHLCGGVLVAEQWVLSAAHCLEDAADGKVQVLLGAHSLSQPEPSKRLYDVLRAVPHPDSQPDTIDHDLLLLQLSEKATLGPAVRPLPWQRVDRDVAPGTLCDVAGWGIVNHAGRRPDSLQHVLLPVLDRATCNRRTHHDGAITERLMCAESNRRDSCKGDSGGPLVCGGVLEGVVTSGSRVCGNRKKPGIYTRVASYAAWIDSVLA

Point of comparison: `NC(=O)n1cc(NC(=O)N2CCS[C@H]2C(=O)NCc2cccc(Cl)c2F)c2cc(F)ccc21` [Example 264, (S)-Thiazolidine-2,3-dicarboxylic acid 3-[(1-carbamoyl-5-fluoro-1H-indol-3-yl)-amide] 2-(3-chloro-2-fluoro-benzylamide)], IC50 10 nM. Against it:
- NC(=O)n1cc(NC(=O)N2CCS[C@H]2C(=O)N[C@H](CO)c2cccc(Cl)c2F)c2ccccc21 [Example 253, (S)-Thiazolidine-2,3-dicarboxylic acid 3-[(1-carbamoyl-1H-indol-3-yl)-amide] 2-{[(S)-1-(3-chloro-2-fluoro-phenyl)-2-hydroxy-ethyl]-amide}] — 110-fold higher, 1070 nM
- COC1CN(C(=O)c2cc(Cl)c(F)c(CNC(=O)[C@@H]3C[C@@H](F)CN3C(=O)Nc3cn(C(N)=O)c4ccccc34)c2)C1 [Example 255, (2S,4R)-4-Fluoro-pyrrolidine-1,2-dicarboxylic acid 1-[(1-carbamoyl-1H-indol-3-yl)-amide] 2-[3-chloro-2-fluoro-5-(3-methoxy-azetidine-1-carbonyl)-benzylamide]] — 43-fold higher, 434 nM
- N#C[C@@H]1C[C@@H](C(=O)Nc2cccc(OC(F)(F)F)c2)N(C(=O)Nc2cn(C(N)=O)c3ccccc23)C1 [Example 256, (2S,4R)-4-cyano-pyrrolidine-1,2-dicarboxylic acid 1-[(1-carbamoyl-1H-indol-3-yl)-amide]2-[(3-trifluoromethoxy-phenyl)-amide]] — 400-fold higher, 4000 nM
- NC(=O)n1cc(NC(=O)N2CC[C@H](O)[C@H]2C(=O)NCc2cccc(Cl)c2)c2ccccc21 [Example 257, (2S,3S)-3-Hydroxy-pyrrolidine-1,2-dicarboxylic acid 1-[(1-carbamoyl-1H-indol-3-yl)-amide] 2-(3-chloro-benzylamide)] — 400-fold higher, 3950 nM
- NC(=O)n1cc(NC(=O)N2[C@@H]3C[C@@H]3C[C@H]2C(=O)NCc2ccccc2)c2ccccc21 [Example 258, (1R,3S,5R)-2-Aza-bicyclo[3.1.0]hexane-2,3-dicarboxylic acid 3-benzylamide 2-[(1-carbamoyl-1H-indol-3-yl)-amide]] — 7.8-fold higher, 78 nM
- CC(=O)n1cc(NC(=O)N2C[C@@H](CO)C[C@H]2C(=O)NCc2cccc(Cl)c2F)c2ccccc21 [Example 260, (2S,4S)-4-Hydroxymethyl-pyrrolidine-1,2-dicarboxylic acid 1-[(1-acetyl-1H-indol-3-yl)-amide] 2-(3-chloro-2-fluoro-benzylamide)] — 20-fold higher, 200 nM
- NC(=O)n1cc(NC(=O)N2C3CC3C[C@H]2C(=O)NCc2cccc(C(F)(F)F)c2F)c2ccccc21 (stereo partly drawn) [Example 261, (1R,3S,5R)-2-Aza-bicyclo[3.1.0]hexane-2,3-dicarboxylic acid 2-[(1-carbamoyl-1H-indol-3-yl)-amide] 3-(2-fluoro-3-trifluoromethyl-benzylamide)] — 7.5-fold higher, 75 nM
- COc1ccc(F)c(F)c1CNC(=O)[C@@H]1SCCN1C(=O)Nc1cn(C(N)=O)c2ccccc12 [Example 262, (S)-Thiazolidine-2,3-dicarboxylic acid 3-[(1-carbamoyl-1H-indol-3-yl)-amide] 2-(2,3-difluoro-6-methoxy-benzylamide)] — 20-fold higher, 200 nM
- NC(=O)n1cc(NC(=O)N2CCS[C@H]2C(=O)NCc2cnc(Cl)s2)c2ccccc21 [Example 263, (S)-Thiazolidine-2,3-dicarboxylic acid 3-[(1-carbamoyl-1H-indol-3-yl)-amide] 2-[(2-chloro-thiazol-5-ylmethyl)-amide]] — 40-fold higher, 400 nM
- NC(=O)n1cc(NC(=O)N2CCS[C@H]2C(=O)Nc2cccc(OC(F)(F)F)c2)c2ccccc21 [Example 267, (S)-Thiazolidine-2,3-dicarboxylic acid 3-[(1-carbamoyl-1H-indol-3-yl)-amide] 2-[(3-trifluoromethoxy-phenyl)-amide]] — 8.3-fold higher, 83 nM
- C=CCOc1ccc2c(c1)c(NC(=O)N1[C@@H]3C[C@@H]3C[C@H]1C(=O)NCc1cccc(Cl)c1F)cn2C(N)=O [Example 268, (1R,3S,5R)-2-Aza-bicyclo[3.1.0]hexane-2,3-dicarboxylic acid 2-[(5-allyloxy-1-carbamoyl-1H-indol-3-yl)-amide] 3-(3-chloro-2-fluoro-benzylamide)] — within 1.5-fold, 8 nM
